Tests used:
[1] = target: T1, LYVE-1 present on the lymph endothelium (swine hindlimb lymph vessel) (Sus scrofa, UniProt I3LTD0); assay: Staining of lymph vessels with HA-NIR, compared with ICG; type: in vivo
T1 construct: LYVE-1 present on the lymph endothelium; from tissue; host or cells: live white Yorkshire swine, hindlimb lymph vessels (lymph endothelium)
T1 sequence (I3LTD0 25-326): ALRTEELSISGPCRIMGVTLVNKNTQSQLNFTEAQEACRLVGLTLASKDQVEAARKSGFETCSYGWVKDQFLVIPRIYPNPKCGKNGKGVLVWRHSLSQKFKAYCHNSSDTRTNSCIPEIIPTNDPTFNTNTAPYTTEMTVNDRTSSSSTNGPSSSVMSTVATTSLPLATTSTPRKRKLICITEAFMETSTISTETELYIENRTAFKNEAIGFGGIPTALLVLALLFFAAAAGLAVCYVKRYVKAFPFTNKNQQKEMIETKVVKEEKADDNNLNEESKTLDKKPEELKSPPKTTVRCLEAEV
Description: Four, two-month old, 60 lb white Yorkshire swine (K Bar Livestock, HC 69 Box 270 Sabinal, Tex.) were imaged using protocols which were approved by the Baylor College of Medicine Institutional Animal Care and Use Committee. The animals were anesthetized, intubated, and maintained with isoflurane. Animal body temperature was maintained at 100° F. using a warming blanket. At the end of the procedure, the animals were euthanized and lymph nodes resected with fluorescence guidance.
Continuous-wave optical imaging of the fluorescent NIR dyes was performed with a custom built intensified charged-coupled device (CCD). Reynolds J S, Troy T L, and Sevick-Muraca E M. Multipixel techniques for frequency-domain photon migration imaging. Biotechnol Prog 13: 669-680, 1997., incorporated herein by reference in its entirety for all purposes. Briefly, the device had three principal components: 1) a NIR-sensitive image intensifier (model FS9910C ITT Night Vision, Roanoke, Va.); 2) a 16-bit dynamic range, frame transfer CCD camera (Roper Scientific, Tucson, Ariz.); and 3) a 785-nm laser diode (Thorlabs) used to provide the excitation light for activating ICG and hyaluronan-NIR. The 785-nm laser diode beam was expanded by using a planoconvex lens and a holographic optical diffuser such that approximately 0.08 m^2 of the swine's body was illuminated. A 785-nm holographic notch band rejection filter (model HNPF-785.0-2.0, Kaiser Optical Systems, Ann Arbor, Mich.) and an 830-nm image quality bandpass filter (model 830.0-2.0, Andover, Salem, N.H.) were placed before the 28-mm Nikkor lens (Nikon) to selectively reject the excitation light and pass the emitted 830-nm wavelength. […]
Images were processed using MATLAB (The Mathworks, Natick, Mass.), ImageJ (National Institutes of Health, Bethesda, Md.), and V++ (Digital Optics, Auckland, New Zealand). […] To reveal the frequency of the pulsatile flow, which is a characteristic of pumping lymphatics, the mean fluorescence intensity from a fixed region of interest on a lymph channel was selected and plotted as a function of imaging time. […]

[2] = cited from earlier work

Compound | normalized fluorescent intensity at fixed ROI as a function of time (FIG. 10C) ([1]; image acquisition 6 min, leg lymph vessel) | propulsion of packets ([1]; intradermal, 64 μM HA-NIR or 32 μM ICG, swine hindlimb vessel) | fluorescent intensity as a function of vessel length and time (FIGS. 11C, 11D) ([1]; swine lymph vessels) | fraction broken down in the liver ([2]; liver) [%] | fraction degraded in lymph nodes ([2]; lymph nodes) [%]
CC1(C)C(/C=C/C=C/C=C/C=C2\N(CCCCS(=O)(=O)O)c3ccc4ccccc4c3C2(C)C)=[N+](CCCCS(=O)(=O)[O-])c2ccc3ccccc3c21 [ICG, indocyanine green] | fluctuation and net reduction of intensity | observed | varies with time and length along the vessel |  | 
hyaluronic acid [HA] |  |  |  | 10 | 90

— patent publication US7875260B2, “Imaging agents for functional imaging of lymphatic structures” (Baylor College of Medicine, priority 2006, dated 2011)
